From US9556180B2, “Pyrazolo[3,4-d]pyrimidinone compounds as inhibitors of the P53/MDM2 interaction” (Novartis AG, priority 2013, dated 2017) come the findings set out here.

The structures appear in SMILES notation.

What all share (type): binding
Experiment [1] addresses T1, p53-MDM2 interaction (human MDM2 protein, amino acids 2-188) (Homo sapiens, UniProt Q00987).
T1 construct: human MDM2 protein (amino acids 2-188); made in house
Kind of experiment: p53-MDM2 Assay 1: TR-FRET inhibition of p53-MDM2 interaction. Conditions: 1.25 nM MDM2-biotinylated, 10 nM Cy5-p53 peptide. As to the method:
(§1) Time Resolved Fluorescence Energy Transfer (TR-FRET) Assay
(§2) The inhibition of p53-MDM2 and p53-MDM4 interactions is measured by time resolved fluorescence energy transfer (TR-FRET). Fluorescence energy transfer (or Foerster resonance energy transfer) describes an energy transfer between donor and acceptor fluorescent molecules. For this assay, human MDM2 protein (amino acids 2-188) and human MDM4 protein (amino acids 2-185), tagged with a C-terminal biotin moiety, are used in combination with a Europium labeled streptavidin (Perkin Elmer, Inc., Waltham, Mass., USA) serving as the donor fluorophore. The p53 derived, Cy5 labeled peptide Cy5-TFSDLWKLL (p53 aa18-26) is the energy acceptor. Upon excitation of the donor molecule at 340 nm, binding interaction between MDM2 or MDM4 and the p53 peptide induces energy transfer and enhanced response at the acceptor emission wavelength at 665 nm. Disruption of the formation of the p53-MDM2 or p53-MDM4 complex due to an inhibitor molecule binding to the p53 binding site of MDM2 or MDM4 results in increased donor emission at 620 nm. The ratiometric FRET assay readout is calculated from the raw data of the two distinct fluorescence signals measured in time resolved mode (fluorescence 665 nm/fluorescence 620 nm×1000).
(§3) After addition of 1.25 nM MDM2-biotinylated or 2.5 nM MDM4-biotinylated (internal preparations, both MDM2 and MDM4 are biotinylated at the C-terminal of the peptide construct), and 0.625 nM Europium labeled streptavidin (Perkin Elmer), the solution is pre-incubated for 15 minutes at room temperature, then 10 nM Cy5-p53 peptide (internal preparation, the Cy5 dye is directly bound to the N-terminal part of p53 peptide construct) is added before an incubation at room temperature for 15 minutes prior to reading the plate. For measurement of samples, a Victor II microplate reader (Perkin Elmer) is used with the following settings: Excitation 340 nm, Emission Donor 620 nm and Emission Acceptor 665 nm. IC50 values are calculated by curve fitting using XLfit. If not specified, reagents are purchased from Sigma-Aldrich Chemie GmBH, Buchs, Switzerland.
(§4) This assay was used to evaluate compounds displaying inhibition of p53-MDM2 interaction and p53-MDM4 interaction at IC50s of 0.005 to 50 μM (p53-MDM2 Assay 1 and p53-MDM4 Assay 1, respectively). For selected compounds displaying IC50s between […] on MDM2, a slightly modified assay is used with the following adaptations: 0.1 nM MDM2, 0.1 nM Europium labeled streptavidin and Tecan genios Pro is used as a microplate reader for the fluorescence measurements (p53-MDM2 Assay 2).
Background: TR-FRET usually uses a lanthanide donor and a delayed reading to cut background.

Experiment [2] deals with T2, p53-MDM4 interaction (human MDM4 protein, amino acids 2-185) (Homo sapiens, UniProt O15151).
T2 construct: human MDM4 protein (amino acids 2-185); made in house
T2 sequence (O15151 2-185): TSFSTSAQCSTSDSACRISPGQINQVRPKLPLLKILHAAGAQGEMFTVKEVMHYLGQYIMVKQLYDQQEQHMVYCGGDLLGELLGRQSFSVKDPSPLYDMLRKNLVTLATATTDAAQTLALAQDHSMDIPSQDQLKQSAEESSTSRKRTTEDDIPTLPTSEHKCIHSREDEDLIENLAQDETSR
As to the kind of experiment: p53-MDM4 Assay 1: TR-FRET inhibition of p53-MDM4 interaction. Particulars: 2.5 nM MDM4-biotinylated, 10 nM Cy5-p53 peptide. On the procedure:
as §1, §2, §3, §4

The target of experiment [3] is T1, p53-MDM2 interaction (human MDM2 protein, amino acids 2-188). Kind of experiment: p53-MDM2 Assay 2: slightly modified TR-FRET assay. Conditions: 0.1 nM MDM2, 0.1 nM Europium labeled streptavidin, Tecan genios Pro reader. On the procedure: as §1, §2, §3, §4

T1 sequence (Q00987 2-188): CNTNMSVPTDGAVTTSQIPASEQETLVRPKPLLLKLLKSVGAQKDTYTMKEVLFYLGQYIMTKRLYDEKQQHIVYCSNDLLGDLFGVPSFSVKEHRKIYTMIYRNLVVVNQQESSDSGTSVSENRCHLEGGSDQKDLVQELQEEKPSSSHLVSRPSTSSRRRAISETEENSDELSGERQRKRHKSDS

Broadly, the IC50 is the midpoint of a concentration-inhibition curve. Regarding `Cc1cc(Cl)ccc1C1c2c(nn(Cc3ccccc3)c2C(C)C)NC(=O)N1c1cccc(Cl)c1F` (stereo not drawn) [Example 1, 2-Benzyl-5-(3-chloro-2-fluoro-phenyl)-4-(4-chloro-2-methyl-phenyl)-3-isopropyl-2,4,5,7-tetrahydro-pyrazolo[3,4-d]pyrimidin-6-one], the IC50 in experiment [1] came out at 1.8 nM; in experiment [2], 34.7 µM.

Regarding `Cc1cc(Cl)ccc1[C@H]1c2c(nn(Cc3ccccc3)c2C(C)C)NC(=O)N1c1cccc(Cl)c1F` [Example 2, (S)-2-Benzyl-5-(3-chloro-2-fluorophenyl)-4-(4-chloro-2-methylphenyl)-3-isopropyl-4,5-dihydro-2H-pyrazolo[3,4-d]pyrimidin-6(7H)-one], the IC50 in experiment [1] was 1.8 nM; in experiment [2], 18.5 µM.

`Cc1cc(Cl)ccc1[C@@H]1c2c(nn(Cc3ccccc3)c2C(C)C)NC(=O)N1c1cccc(Cl)c1F` [Example 3, (R)-2-Benzyl-5-(3-chloro-2-fluorophenyl)-4-(4-chloro-2-methylphenyl)-3-isopropyl-4,5-dihydro-2H-pyrazolo[3,4-d]pyrimidin-6(7H)-one]: the IC50 came to 146 nM in experiment [1] and 39.7 µM in experiment [2].

Turning to `COc1ccccc1-n1nc2c(c1C(C)C)[C@@H](c1ccc(Cl)cc1C)N(c1cccc(Cl)c1F)C(=O)N2` [Example 7, (R)-5-(3-Chloro-2-fluoro-phenyl)-4-(4-chloro-2-methyl-phenyl)-3-isopropyl-2-(2-methoxy-phenyl)-2,4,5,7-tetrahydro-pyrazolo[3,4-d]pyrimidin-6-one], the results for the IC50 in experiment [1] and in experiment [2] were 62.2 nM and 19.1 µM, respectively.

Take `Cc1cc(Cl)ccc1C1c2c(nn(CCN(C)C)c2C(C)C)NC(=O)N1c1cccc(Cl)c1F` (stereo not drawn) [Example 9, 5-(3-chloro-2-fluoro-phenyl)-4-(4-chloro-2-methyl-phenyl)-2-(2-dimethylamino-ethyl)-3-isopropyl-2,4,5,7-tetrahydro-pyrazolo[3,4-d]pyrimidin-6-one]: the IC50 in experiment [1] was 16.7 nM; in experiment [2], 41.7 µM.

Take `COc1ccccc1-n1nc2c(c1C(C)C)C(c1ccc(Cl)cc1C)N(c1cc(Cl)ccc1OCCN(C)C)C(=O)N2` (stereo not drawn) [Example 12, 5-[5-Chloro-2-(2-dimethylamino-ethoxy)-phenyl]-4-(4-chloro-2-methyl-phenyl)-3-isopropyl-2-(2-methoxy-phenyl)-2,4,5,7-tetrahydro-pyrazolo[3,4-d]pyrimidin-6-one]: the IC50 in experiment [1] was found to be 2.5 nM; in experiment [2], 2.36 µM.

Take `COCCn1cc(N2C(=O)Nc3nn(-c4ccccc4OC)c(C(C)C)c3C2c2ccc(Cl)cc2)cc(Cl)c1=O` (stereo not drawn) [Example 16, 5-[5-Chloro-1-(2-methoxy-ethyl)-6-oxo-1,6-dihydro-pyridin-3-yl]-4-(4-chloro-phenyl)-3-isopropyl-2-(2-methoxy-phenyl)-2,4,5,7-tetrahydro-pyrazolo[3,4-d]pyrimidin-6-one]: the values for the IC50 in experiment [1] and in experiment [2] were 5.6 nM and 8.57 µM, respectively.

Regarding `COc1ccccc1-n1nc2c(c1C(C)C)C(c1ccc(Cl)cc1)N(c1cc(Cl)ccc1OCCN(C)C)C(=O)N2` (stereo not drawn) [Example 17, 5-(5-Chloro-2-(3-(dimethylamino)ethoxy)phenyl)-4-(4-chlorophenyl)-3-isopropyl-2-(2-methoxyphenyl)-4,5-dihydro-2H-pyrazolo[3,4-d]pyrimidin-6(7H)-one], the IC50 in experiment [1] was found to be 6.6 nM; in experiment [2], 11.6 µM.

Regarding `COc1ccccc1-n1nc2c(c1C(C)C)C(c1ccc(Cl)cc1)N(c1ccc(=O)n(C)c1)C(=O)N2` (stereo not drawn) [Example 20, 4-(4-Chloro-phenyl)-3-isopropyl-2-(2-methoxy-phenyl)-5-(1-methyl-6-oxo-1,6-dihydro-pyridin-3-yl)-2,4,5,7-tetrahydro-pyrazolo[3,4-d]pyrimidin-6-one], the IC50 is 4.8 nM in experiment [1] and 4.73 µM in experiment [2].

For `COc1ccc(C#N)cc1-n1nc2c(c1C(C)C)C(c1ccc(Cl)cc1C)N(c1cc(Cl)ccc1C)C(=O)N2` (stereo not drawn) [Example 23, 3-(4-(4-Chloro-2-methylphenyl)-5-(5-chloro-2-methylphenyl)-3-isopropyl-6-oxo-4,5,6,7-tetrahydro-2H-pyrazolo[3,4-d]pyrimidin-2-yl)-4-methoxybenzonitrile], the IC50 in experiment [3] was 0.15 nM.

As for `COc1ccc(C#N)cc1-n1nc2c(c1C(C)C)C(c1ccc(Cl)cc1C)N(c1cc(Cl)c(=O)n(C)c1)C(=O)N2` (stereo not drawn) [Example 24, 3-(5-(5-Chloro-1-methyl-6-oxo-1,6-dihydropyridin-3-yl)-4-(4-chloro-2-methylphenyl)-3-isopropyl-6-oxo-4,5,6,7-tetrahydro-2H-pyrazolo[3,4-d]pyrimidin-2-yl)-4-methoxybenzonitrile], the IC50 in experiment [3] was found to be 0.14 nM.

Regarding `COc1ccc(CN)cc1-n1nc2c(c1C(C)C)C(c1ccc(Cl)cc1C)N(c1cc(Cl)ccc1C)C(=O)N2` (stereo not drawn) [Example 25, 2-(5-(Aminomethyl)-2-methoxyphenyl)-4-(4-chloro-2-methylphenyl)-5-(5-chloro-2-methylphenyl)-3-isopropyl-4,5-dihydro-2H-pyrazolo[3,4-d]pyrimidin-6(7H)-one], the IC50 in experiment [3] is 0.12 nM.

Regarding `COc1ccc(CNC(C)=O)cc1-n1nc2c(c1C(C)C)C(c1ccc(Cl)cc1C)N(c1cc(Cl)ccc1C)C(=O)N2` (stereo not drawn) [Example 26, N-(3-(4-(4-Chloro-2-methylphenyl)-5-(5-chloro-2-methylphenyl)-3-isopropyl-6-oxo-4,5,6,7-tetrahydro-2H-pyrazolo[3,4-d]pyrimidin-2-yl)-4-methoxybenzyl)acetamide], the IC50 in experiment [3] amounted to 0.13 nM.

On to `COc1ccc(CNC=O)cc1-n1nc2c(c1C(C)C)C(c1ccc(Cl)cc1C)N(c1cc(Cl)ccc1C)C(=O)N2` (stereo not drawn) [Example 27, N-(3-(4-(4-Chloro-2-methylphenyl)-5-(5-chloro-2-methylphenyl)-3-isopropyl-6-oxo-4,5,6,7-tetrahydro-2H-pyrazolo[3,4-d]pyrimidin-2-yl)-4-methoxybenzyl)formamide], for which the 50% inhibitory concentration (IC50) in experiment [3] was 0.11 nM.

On to `COc1ccc(C(N)=O)cc1-n1nc2c(c1C(C)C)C(c1ccc(Cl)cc1C)N(c1cc(Cl)ccc1C)C(=O)N2` (stereo not drawn) [Example 28, 3-(4-(4-Chloro-2-methylphenyl)-5-(5-chloro-2-methylphenyl)-3-isopropyl-6-oxo-4,5,6,7-tetrahydro-2H-pyrazolo[3,4-d]pyrimidin-2-yl)-4-methoxybenzamide], for which the IC50 in experiment [3] was 0.24 nM.

On to `COc1ccc(CN)cc1-n1nc2c(c1C(C)C)C(c1ccc(Cl)cc1C)N(c1cc(Cl)c(=O)n(C)c1)C(=O)N2` (stereo not drawn) [Example 29, 2-(5-(Aminomethyl)-2-methoxyphenyl)-5-(5-chloro-1-methyl-6-oxo-1,6-dihydropyridin-3-yl)-4-(4-chloro-2-methylphenyl)-3-isopropyl-4,5-dihydro-2H-pyrazolo[3,4-d]pyrimidin-6(7H)-one], for which, in experiment [3], the IC50 worked out at 0.18 nM.

Turning to `COc1ccc(CNC(C)=O)cc1-n1nc2c(c1C(C)C)C(c1ccc(Cl)cc1C)N(c1cc(Cl)c(=O)n(C)c1)C(=O)N2` (stereo not drawn) [Example 30, N-(3-(5-(5-Chloro-1-methyl-6-oxo-1,6-dihydropyridin-3-yl)-4-(4-chloro-2-methylphenyl)-3-isopropyl-6-oxo-4,5,6,7-tetrahydro-2H-pyrazolo[3,4-d]pyrimidin-2-yl)-4-methoxybenzyl)acetamide], the IC50 in experiment [3] worked out at 0.21 nM.

For the compound `COc1ncc(-n2nc3c(c2C(C)C)C(c2ccc(Cl)cc2C)N(c2cc(Cl)c(=O)n(C)c2)C(=O)N3)c(OC)n1` (stereo not drawn) [Example 31, 5-(5-Chloro-1-methyl-6-oxo-1,6-dihydropyridin-3-yl)-4-(4-chloro-2-methylphenyl)-2-(2,4-dimethoxypyrimidin-5-yl)-3-isopropyl-4,5-dihydro-2H-pyrazolo[3,4-d]pyrimidin-6(7H)-one], the IC50 in experiment [3] came out at 0.29 nM.
